Results published in US10065956B2, “Ethynyl derivatives” (Hoffmann-La Roche Inc., priority 2015, dated 2018).

Target: T1, human mGlu4 receptor (Homo sapiens, UniProt Q14833)
T1 construct: expressed in transfected cells; host or cells: monoclonal HEK-293 cell line, stably transfected
Experiment: Ca2+ mobilization in vitro assay on recombinant human mGlu4 expressed in HEK293 cells (PAM, L-AP4 at EC20)
Type: cell-based
Conditions: for Emax: HEK293, maximal response in % of the maximal stimulatory effect obtained with saturating concentrations of L-AP4, read-out: Eff. (%); for EC50: HEK293 cells expressing human mGlu4, L-AP4 added at EC20
From the text: FIG. 1: Illustration of the experimental outline for mGlu4 PAM Ca2+ mobilization screening assay and the determination of EC50 and % Emax values.
Determination of EC50 Values Using a Ca2+ Mobilization In Vitro Assay on Recombinant Human mGlu4 Expressed in HEK293 Cells:
A monoclonal HEK-293 cell line stably transfected with a cDNA encoding for the human mGlu4 receptor was generated; for the work with mGlu4 Positive Allosteric Modulators (PAMs), a cell line with low receptor expression levels and low constitutive receptor activity was selected to allow the differentiation of agonistic versus PAM activity. Cells were cultured according to standard protocols (Freshney, 2000) in Dulbecco's Modified Eagle Medium with high glucose supplemented with 1 mM glutamine, 10% (vol/vol) heat-inactivated bovine calf serum, Penicillin/Streptomycin, 50 μg/ml hygromycin and 15 μg/ml blasticidin (all cell culture reagents and antibiotics from Invitrogen, Basel, Switzerland).
About 24 hrs before an experiment, 5×10^4 cells/well were seeded in poly-D-lysine coated, black/clear-bottomed 96-well plates. The cells were loaded with 2.5 μM Fluo-4AM in loading buffer (1×HBSS, 20 mM HEPES) for 1 hr at 37° C. and washed five times with loading buffer. The cells were transferred into a Functional Drug Screening System 7000 (Hamamatsu, Paris, France), and 11 half logarithmic serial dilutions of test compound at 37° C. were added and the cells were incubated for 10-30 min. with on-line recording of fluorescence. Following this pre-incubation step, the agonist (2S)-2-amino-4-phosphonobutanoic acid (L-AP4) was added to the cells at a concentration corresponding to EC20 with on-line recording of fluorescence; in order to account for day-to-day variations in the responsiveness of cells, the EC20 of L-AP4 was determined immediately ahead of each experiment by recording of a full dose-response curve of L-AP4. Responses were measured as peak increase in fluorescence minus basal (i.e. fluorescence without addition of L-AP4), normalized to the maximal stimulatory effect obtained with saturating concentrations of L-AP4. Graphs were plotted with the % maximal stimulatory using XLfit, a curve fitting program that iteratively plots the data using Levenburg Marquardt algorithm. The single site competition analysis equation used was y=A+((B−A)/(1+((x/C)D))), where y is the % maximal stimulatory effect, A is the minimum y, B is the maximum y, C is the EC50, x is the log 10 of the concentration of the competing compound and D is the slope of the curve (the Hill Coefficient). From these curves the EC50 (drug concentration at which 50% of the maximal receptor activation was achieved), the Hill coefficient as well as the maximal response in % of the maximal stimulatory effect obtained with saturating concentrations of L-AP4 were calculated (see FIG. 1). […] A depression of the signal observed after addition of the EC20 concentration of L-AP4 was indicative of an inhibitory activity of the test compound.

T1 sequence (Q14833 33-912): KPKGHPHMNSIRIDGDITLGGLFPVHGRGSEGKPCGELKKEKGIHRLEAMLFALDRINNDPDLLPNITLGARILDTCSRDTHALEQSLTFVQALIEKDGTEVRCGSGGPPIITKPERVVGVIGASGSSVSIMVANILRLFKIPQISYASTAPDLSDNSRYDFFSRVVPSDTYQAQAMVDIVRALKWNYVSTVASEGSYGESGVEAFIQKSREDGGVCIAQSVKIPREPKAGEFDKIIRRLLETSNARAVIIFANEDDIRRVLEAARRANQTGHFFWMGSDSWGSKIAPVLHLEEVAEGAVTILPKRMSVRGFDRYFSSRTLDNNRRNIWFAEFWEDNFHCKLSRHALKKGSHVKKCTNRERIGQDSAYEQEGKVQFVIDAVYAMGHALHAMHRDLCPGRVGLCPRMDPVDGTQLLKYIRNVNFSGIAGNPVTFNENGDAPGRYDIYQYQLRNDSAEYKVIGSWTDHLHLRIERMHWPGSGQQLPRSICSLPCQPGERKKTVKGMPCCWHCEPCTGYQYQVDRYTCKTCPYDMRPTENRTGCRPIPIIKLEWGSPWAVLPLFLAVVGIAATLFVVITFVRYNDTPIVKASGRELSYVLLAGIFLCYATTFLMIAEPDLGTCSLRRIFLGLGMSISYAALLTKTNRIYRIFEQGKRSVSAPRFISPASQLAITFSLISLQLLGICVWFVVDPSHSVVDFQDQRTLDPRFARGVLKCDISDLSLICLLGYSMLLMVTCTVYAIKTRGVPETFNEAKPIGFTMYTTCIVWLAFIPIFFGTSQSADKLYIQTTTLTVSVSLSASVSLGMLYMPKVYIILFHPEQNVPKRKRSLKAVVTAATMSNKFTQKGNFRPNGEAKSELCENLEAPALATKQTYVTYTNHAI

SMILES	Emax	EC50
CN1C(=O)N(c2c(F)cc(C#Cc3ccccc3)cc2F)C(=O)C[C@@]1(C)c1cnn(C2CCOC2)c1 (mixture of isomers) [Example 62, (6S)-3-[2,6-Difluoro-4-(2-phenylethynyl)phenyl]-1,6-dimethyl-6-[1-[(3RS)-tetrahydrofuran-3-yl]pyrazol-4-yl]hexahydropyrimidine-2,4-dione]	128%	71 nM
CN1C(=O)N(c2c(F)cc(C#Cc3ccccc3)cc2F)C(=O)C[C@@]1(C)c1ccn(C2CCOC2)n1 (mixture of isomers) [Example 64, (6S)-3-[2,6-Difluoro-4-(2-phenylethynyl)phenyl]-1,6-dimethyl-6-[1-[(3RS)-tetrahydrofuran-3-yl]pyrazol-3-yl]hexahydropyrimidine-2,4-dione]	98%	88 nM
Cc1nc(C2(C)CC(=O)N(c3c(F)cc(C#Cc4ccccc4)cc3F)C(=O)N2C)cs1 (racemic) [Example 3, (6RS)-3-[2,6-Difluoro-4-(2-phenylethynyl)phenyl]-1,6-dimethyl-6-(2-methylthiazol-4-yl)hexahydropyrimidine-2,4-dione]	138%	94 nM
CN1C(=O)N(c2c(F)cc(C#Cc3ccccc3)cc2F)C(=O)C[C@@]1(C)c1nccs1 [Example 1, (6S)-3-[2,6-Difluoro-4-(2-phenylethynyl)phenyl]-1,6-dimethyl-6-thiazol-2-yl-hexahydropyrimidine-2,4-dione]	119%	113 nM
CN1C(=O)N(c2c(F)cc(C#Cc3ccccc3)cc2F)C(=O)C[C@@]1(C)c1cn(C)cn1 [Example 2, (6S)-3-[2,6-Difluoro-4-(2-phenylethynyl)phenyl]-1,6-dimethyl-6-(1-methylimidazol-4-yl)hexahydropyrimidine-2,4-dione]	109%	121 nM
CN1C(=O)N(c2c(F)cc(C#Cc3ccccc3)cc2F)C(=O)C[C@@]1(C)c1ncnn1C [Example 4, (6S)-3-[2,6-Difluoro-4-(2-phenylethynyl)phenyl]-1,6-dimethyl-6-(2-methyl-1,2,4-triazol-3-yl)hexahydropyrimidine-2,4-dione]	95%	136 nM
Cn1cc([C@]2(C)CC(=O)N(c3c(F)cc(C#Cc4ccccc4)cc3F)C(=O)N2)cn1 [Example 5, (6S)-3-[2,6-Difluoro-4-(2-phenylethynyl)phenyl]-6-methyl-6-(1-methylpyrazol-4-yl)hexahydropyrimidine-2,4-dione]	103%	110 nM
CN1C(=O)N(c2c(F)cc(C#Cc3ccccc3)cc2F)C(=O)C[C@@]1(C)c1cnn(C)c1 [Example 6, (6S)-3-[2,6-Difluoro-4-(2-phenylethynyl)phenyl]-1,6-dimethyl-6-(1-methylpyrazol-4-yl)hexahydropyrimidine-2,4-dione]	98%	36 nM
CN1C(=O)N(c2c(F)cc(C#Cc3ccccc3)cc2F)C(=O)C[C@@]1(C)c1ccnn1C [Example 7, (6S)-3-[2,6-Difluoro-4-(2-phenylethynyl)phenyl]-1,6-dimethyl-6-(2-methylpyrazol-3-yl)hexahydropyrimidine-2,4-dione]	100%	147 nM
CN1C(=O)N(c2c(F)cc(C#Cc3ccccc3)cc2F)C(=O)C[C@@]1(C)c1nn(C)c2ccccc12 [Example 8, (6S)-3-[2,6-Difluoro-4-(2-phenylethynyl)phenyl]-1,6-dimethyl-6-(1-methylindazol-3-yl)hexahydropyrimidine-2,4-dione]	99%	157 nM
CN1C(=O)N(c2c(F)cc(C#Cc3ccccc3)cc2F)C(=O)C[C@@]1(C)c1cn(C)c2ncccc12 [Example 9, (6S)-3-[2,6-Difluoro-4-(2-phenylethynyl)phenyl]-1,6-dimethyl-6-(1-methylpyrrolo[2,3-b]pyridin-3-yl)hexahydropyrimidine-2,4-dione]	155%	81 nM
CN1C(=O)N(c2c(F)cc(C#Cc3ccccc3)cc2F)C(=O)C[C@@]1(C)c1cc[nH]n1 [Example 10, (6S)-3-[2,6-Difluoro-4-(2-phenylethynyl)phenyl]-1,6-dimethyl-6-(1H-pyrazol-3-yl)hexahydropyrimidine-2,4-dione]	134%	84 nM
CN1C(=O)N(c2c(F)cc(C#Cc3ccccc3)cc2F)C(=O)C[C@@]1(C)c1cncn1C [Example 11, (6S)-3-[2,6-Difluoro-4-(2-phenylethynyl)phenyl]-1,6-dimethyl-6-(3-methylimidazol-4-yl)hexahydropyrimidine-2,4-dione]	91%	59 nM
CCN1C(=O)N(c2c(F)cc(C#Cc3ccccc3)cc2F)C(=O)C[C@@]1(C)c1cnn(C)c1 [Example 12, (6S)-3-[2,6-Difluoro-4-(2-phenylethynyl)phenyl]-1-ethyl-6-methyl-6-(1-methylpyrazol-4-yl)hexahydropyrimidine-2,4-dione]	95%	67 nM
CCn1cc([C@]2(C)CC(=O)N(c3c(F)cc(C#Cc4ccccc4)cc3F)C(=O)N2C)cn1 [Example 13, (6S)-3-[2,6-Difluoro-4-(2-phenylethynyl)phenyl]-6-(1-ethylpyrazol-4-yl)-1,6-dimethyl-hexahydropyrimidine-2,4-dione]	115%	64 nM
CN1C(=O)N(c2c(F)cc(C#Cc3ccccc3)cc2F)C(=O)C[C@@]1(C)c1cnn2ccccc12 [Example 14, (6S)-3-[2,6-Difluoro-4-(2-phenylethynyl)phenyl]-1,6-dimethyl-6-pyrazolo[1,5-a]pyridin-3-yl-hexahydropyrimidine-2,4-dione]	137%	93 nM
CN1C(=O)N(c2c(F)cc(C#Cc3ccccc3)cc2F)C(=O)C[C@@]1(C)c1cnsc1 [Example 15, (6S)-3-[2,6-Difluoro-4-(2-phenylethynyl)phenyl]-6-isothiazol-4-yl-1,6-dimethyl-hexahydropyrimidine-2,4-dione]	167%	38 nM
CN1C(=O)N(c2c(F)cc(C#Cc3ccccc3)cc2F)C(=O)C[C@@]1(C)c1cn[nH]c1 [Example 16, (6S)-3-[2,6-Difluoro-4-(2-phenylethynyl)phenyl]-1,6-dimethyl-6-(1H-pyrazol-4-yl)hexahydropyrimidine-2,4-dione]	131%	36 nM
CN1C(=O)N(c2c(F)cc(C#Cc3ccccc3)cc2F)C(=O)C[C@@]1(C)c1nn(C)c2ncccc12 [Example 17, (6S)-3-[2,6-Difluoro-4-(2-phenylethynyl)phenyl]-1,6-dimethyl-6-(1-methylpyrazolo[3,4-b]pyridin-3-yl)hexahydropyrimidine-2,4-dione]	154%	126 nM
CC[C@@]1(c2cnn(C)c2)CC(=O)N(c2c(F)cc(C#Cc3ccccc3)cc2F)C(=O)N1C [Example 18, (6S)-3-[2,6-Difluoro-4-(2-phenylethynyl)phenyl]-6-ethyl-1-methyl-6-(1-methylpyrazol-4-yl)hexahydropyrimidine-2,4-dione]	135%	47 nM
CC(C)n1cc([C@]2(C)CC(=O)N(c3c(F)cc(C#Cc4ccccc4)cc3F)C(=O)N2C)cn1 [Example 19, (6S)-3-[2,6-Difluoro-4-(2-phenylethynyl)phenyl]-6-(1-isopropylpyrazol-4-yl)-1,6-dimethyl-hexahydropyrimidine-2,4-dione]	139%	36 nM
